How the values were obtained:
Bcl-xL protein = target: T1, Bcl-xL protein (Homo sapiens, UniProt Q07817, N197C); assay: Fluorescence quenching assay (PUMA peptide displacement); type: binding; details: 1 nM protein, 400 nM peptide, 2 hours at 23° C.; KI determined from IC50
T1 construct: (2-197)[N197C]; His-His (two His8 stretches joined by a Gly/Ala/Ser/Thr linker)
Source text: Fluorescence quenching assay measures the change in fluorescence intensity of C-terminally Cy5-labeled BCL-xL protein, His-His-(EK)-hs ? (2-197)[N197C] (UniProtKB® primary accession number Q07817-1) having an amino acid sequence (SEQ ID:03): [[…] […] […] […] […]] which is linked in C-terminal region to the amino acid X which corresponds to a cysteine labeled on the sulfur with Sulfo-Cyanine5 from Lumiprobe GmbH catalogue number 13380, upon binding of a C-terminally labeled peptide derived from PUMA (UniProtKB® primary accession number Q9BXH1) having an aminoacid sequence (SEQ ID:04): [[…]] which is linked in C-terminal region to the amino acid X′ where X′ is cysteine labeled on the sulfur with TQ5WS from AAT Bioquest catalogue number 2079.
The addition of a compound which binds competitively to the same site as the peptide will result in an increase in the fluorescence intensity of the protein due to displacement of the fluorescence quencher.
An 11-point serial dilution of each compound was prepared in DMSO the final buffer conditions were 10 mM 4-(2-hydroxyethyl)-1-piperazineethanesulfonic acid [HEPES], 150 mM NaCl, 0.05% Tween 20, pH 7.4 and 5% DMSO. The final protein concentration in the assay was 1 nM with the peptide present at 400 nM. The experiments were incubated for 2 hours at 23° C. before fluorescence intensity was measured on a Biotek SynergyNeo plate reader (Excitation 620 nm, emission 680 nm). […] The KI values were determined from the IC50 values according to Cer et al, Nucleic Acids Res, 2009, Jul. 1: 37(WebServer issue): W441-W445.

H146 cells = assay: H146 cell viability, MTT assay; type: cell-based; details: Homo sapiens, NCI-H146, 48 h, 48 h exposure
Summary of the method: (§1)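 Viability read by MTT reduction (OD 540 nm after overnight SDS/HCl lysis) after 48 h compound treatment of cells in RPMI 1640/10% FBS. Triplicates at nine concentrations, 3.16-fold apart; four-parameter curve fitting yields IC50.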

MOLT-4 cells = assay: MOLT-4 cell viability, MTT assay; type: cell-based; details: Homo sapiens, MOLT-4, 48 h, 48 h exposure
Summary of the method: as §1

T1 sequence (Q07817 2-197 N197C): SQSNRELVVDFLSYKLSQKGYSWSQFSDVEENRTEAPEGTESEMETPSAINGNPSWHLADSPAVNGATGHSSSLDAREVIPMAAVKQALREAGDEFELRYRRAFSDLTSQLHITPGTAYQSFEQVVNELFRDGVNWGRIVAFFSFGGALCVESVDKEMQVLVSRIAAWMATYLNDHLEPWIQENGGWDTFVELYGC

Compound	Ki (Bcl-xL protein) [nM]	IC50 (H146 cells) [nM]	IC50 (MOLT-4 cells) [nM]
CNCC#Cc1cc(F)c(OCCCc2sc(N(C)c3cc(C)c(Nc4nc5ccccc5s4)nn3)nc2C(=O)O)cn1 [Example 197, 2-({6-[(1,3-Benzothiazol-2-yl)amino]-5-methylpyridazin-3-yl}(methyl)amino)-5-[3-({4-fluoro-6-[3-(methylamino)prop-1-yn-1-yl]pyridin-3-yl}oxy)propyl]-1,3-thiazole-4-carboxylic acid]	0.0013	43.9	–
C#CCCCN(c1cc(C)c(Nc2nc3ccccc3s2)nn1)c1nc(C(=O)O)c(CCCOc2ccc(C#CCNC)cc2F)s1 [Example 253, 2-[{6-[(1,3-benzothiazol-2-yl)amino]-5-methylpyridazin-3-yl}(pent-4-yn-1-yl)amino]-5-(3-{2-fluoro-4-[3-(methylamino)prop-1-yn-1-yl]phenoxy}propyl)-1,3-thiazole-4-carboxylic acid]	0.07	–	31.7
CNCC#Cc1ccc(OCCCc2sc(N(CCCCCN=[N+]=[N-])c3cc(C)c(Nc4nc5ccccc5s4)nn3)nc2C(=O)O)c(F)c1 [Example 267, 2-[5-azidopentyl-[6-[(1,3-benzothiazol-2-yl)amino]-5-methyl-pyridazin-3-yl]amino]-5-[3-[2-fluoro-4-[3-(methylamino)prop-1-ynyl]phenoxy]propyl]-1,3-thiazole-4-carboxylic acid]	0.016	–	43.8
Cc1cc(N(C)c2ccc(-c3cnn(CC45CC6(C)CC(C)(C4)CC(OCCNCCCO)(C6)C5)c3C)c(C(=O)O)n2)nnc1Nc1nc2ccccc2s1 [Example 268, 6-[[6-(1,3-benzothiazol-2-ylamino)-5-methyl-pyridazin-3-yl]-methyl-amino]-3-[1-[[3-[2-(3-hydroxypropylamino)ethoxy]-5,7-dimethyl-1-adamantyl]methyl]-5-methyl-pyrazol-4-yl]pyridine-2-carboxylic acid]	0.0023	–	0.255
COCCCNCCOC12CC3(C)CC(C)(CC(Cn4ncc(-c5ccc(N(C)c6cc(C)c(Nc7nc8ccccc8s7)nn6)nc5C(=O)O)c4C)(C3)C1)C2 [Example 269, 6-[[6-(1,3-benzothiazol-2-ylamino)-5-methyl-pyridazin-3-yl]-methyl-amino]-3-[1-[[3-[2-(3-methoxypropylamino)ethoxy]-5,7-dimethyl-1-adamantyl]methyl]-5-methyl-pyrazol-4-yl]pyridine-2-carboxylic acid]	0.0027	–	0.182
Cc1cc(N(C)c2ccc(-c3cnn(CC45CC6(C)CC(C)(C4)CC(OCCN4CCOCC4)(C6)C5)c3C)c(C(=O)O)n2)nnc1Nc1nc2ccccc2s1 [Example 270, 6-[[6-(1,3-benzothiazol-2-ylamino)-5-methyl-pyridazin-3-yl]-methyl-amino]-3-[1-[[3,5-dimethyl-7-(2-morpholinoethoxy)-1-adamantyl]methyl]-5-methyl-pyrazol-4-yl]pyridine-2-carboxylic acid]	0.003	–	0.199
Cc1cc(N(C)c2ccc(-c3cnn(CC45CC6(C)CC(C)(C4)CC(OCCNCCC(=O)O)(C6)C5)c3C)c(C(=O)O)n2)nnc1Nc1nc2ccccc2s1 [Example 271, 6-[[6-(1,3-benzothiazol-2-ylamino)-5-methyl-pyridazin-3-yl]-methyl-amino]-3-[1-[[3-[2-(2-carboxyethylamino)ethoxy]-5,7-dimethyl-1-adamantyl]methyl]-5-methyl-pyrazol-4-yl]pyridine-2-carboxylic acid]	0.0033	–	30.8
Cc1cc(N(C)c2ccc(-c3cnn(CC45CC6(C)CC(C)(C4)CC(OCCNCc4cccc(O)c4)(C6)C5)c3C)c(C(=O)O)n2)nnc1Nc1nc2ccccc2s1 [Example 272, 6-[[6-(1,3-benzothiazol-2-ylamino)-5-methyl-pyridazin-3-yl]-methyl-amino]-3-[1-[[3-[2-[(3-hydroxyphenyl)methylamino]ethoxy]-5,7-dimethyl-1-adamantyl]methyl]-5-methyl-pyrazol-4-yl]pyridine-2-carboxylic acid]	0.0023	–	0.284

— US12649733B2, “3,6-diamino-pyridazin-3-yl derivatives, pharmaceutical compositions containing them and their uses as pro-apoptotic agents” (LES LABORATOIRES SERVIER, priority 2019, dated 2026)
